These results are taken from ChEMBL document CHEMBL1201862, “PubChem BioAssay data set” (2004).

Structures are written as SMILES.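 These data come from cells grown in 96-well plates and exposed to compound for 48 hours at five concentrations. GI50 marks 50% less growth.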 The source made the active and inactive calls. Rule as the data show it: active = GI50 up to about 1.1 µM and inactive = higher.

Some test systems named below: PC-3; A549; KM12; Hs-578T; RPMI-8226; SF-268; HCT-15; MDA-N; MDA-MB-231; MDA-MB-435; SNB-75; SW-620; SK-MEL-2; SK-OV-3; UACC-257; NCI-H522; COLO 205; SK-MEL-5; ACHN; T47D.
Test in all cases: NCI tumour cell line growth inhibition, 48 h

Regarding `N#C/C(=C\Nc1ccccn1)C(=O)c1ccco1`, the GI50 with PC-3, in the assay on A549, in the assay on KM12, in the assay on Hs-578T, in the assay with RPMI-8226 and in the assay with SF-268 was > 100 µM (inactive) in each case. The GI50 in the assay on HCT-15 was over 100 µM; in the assay with MDA-N, > 100 µM (inactive); in the assay with MDA-MB-231 it was > 100 µM (inactive); in the assay with MDA-MB-435, > 100 µM (inactive); in the assay with SNB-75, > 100 µM (inactive); in the assay with SW-620, > 100 µM (inactive). Further, the GI50 in the assay on SK-MEL-2, with SK-OV-3, with UACC-257, in the assay with NCI-H522, in the assay with COLO 205 and in the assay on SK-MEL-5 was > 100 µM (inactive) in each case. Besides, the GI50 in the assay on ACHN is > 100 µM (inactive).
`CCOC(=O)C12CCC(=O)N1N(C)c1ncccc1N2` (stereo not given): the GI50 was > 100 µM (inactive) with A549; > 100 µM (inactive) in the assay on KM12; > 100 µM (inactive) in the assay on RPMI-8226; > 100 µM (inactive) with SF-268; over 100 µM in the assay with HCT-15; > 100 µM (inactive) in the assay on T47D. Also, the GI50 with MDA-N is > 100 µM (inactive); in the assay with MDA-MB-231, > 100 µM (inactive); in the assay with MDA-MB-435 it was > 100 µM (inactive); with SNB-75, 67.1 µM (inactive); in the assay on SW-620, > 100 µM (inactive); in the assay on SK-MEL-2, < 0.01 µM (active). In addition, the GI50 with SK-OV-3, in the assay on UACC-257, in the assay on NCI-H522, with COLO 205, in the assay on SK-MEL-5 and in the assay with ACHN was > 100 µM (inactive) each time.
As for `Cn1nc2ccc([N+](=O)[O-])c(Cn3nnc4ccccc43)c2n1`, the GI50 in the assay on A549 was > 100 µM (inactive); in the assay with KM12, 76.7 µM (inactive); in the assay with Hs-578T it was 93.1 µM (inactive); with RPMI-8226, > 100 µM (inactive); in the assay on SF-268, > 100 µM (inactive); with HCT-15, over 100 µM. The GI50 in the assay with T47D is > 100 µM (inactive); with MDA-N it was 88.3 µM (inactive); with MDA-MB-231, > 100 µM (inactive); with MDA-MB-435, 90.8 µM (inactive); with SNB-75 it was 70.3 µM (inactive); in the assay with SW-620 it was > 100 µM (inactive). The GI50 in the assay with SK-MEL-2 is > 100 µM (inactive); in the assay with SK-OV-3, > 100 µM (inactive); with UACC-257, > 100 µM (inactive); with COLO 205 it was > 100 µM (inactive); with SK-MEL-5, 79.4 µM (inactive); in the assay with ACHN, > 100 µM (inactive).
`O=C(OC1C2OC(=O)c3cc(O)c(O)c(O)c3Oc3cc4c(c(O)c3O)-c3c(cc(O)c(O)c3O)C(=O)OCC3OC(O)C(OC(=O)c5cc(O)c(O)c(O)c5Oc5cc6c(c(O)c5O)-c5c(cc(O)c(O)c5O)C(=O)OC1C(COC6=O)OC2O)C(OC(=O)c1cc(O)c(O)c(O)c1)C3OC4=O)c1cc(O)c(O)c(O)c1` (stereo not given): the GI50 in the assay on PC-3 was 20 µM (inactive); with A549, 10.8 µM (inactive); in the assay with KM12, 3.36 µM (inactive); in the assay with Hs-578T, 32.3 µM (inactive); with RPMI-8226, 4.59 µM (inactive); in the assay on SF-268, 26.4 µM (inactive). The GI50 is > 100 µM (inactive) in the assay with T47D; 21.2 µM (inactive) in the assay on MDA-N; 19.6 µM (inactive) in the assay on MDA-MB-231; 21.4 µM (inactive) in the assay on MDA-MB-435; 13.2 µM (inactive) in the assay with SW-620; 12.5 µM (inactive) in the assay with SK-OV-3. Also, the GI50 in the assay with UACC-257 was 81.5 µM (inactive); with COLO 205, 5.87 µM (inactive); in the assay with SK-MEL-5, 53.8 µM (inactive); in the assay on ACHN, 38.9 µM (inactive).
As to `CCn1c(-c2ccccc2)cs/c1=N\C(P(=O)(O)O)P(=O)(O)O`, the GI50 in the assay on PC-3, with A549, with KM12, in the assay with Hs-578T, in the assay on RPMI-8226 and in the assay with SF-268 was > 100 µM (inactive) each time. The GI50 in the assay with HCT-15 is over 100 µM; with MDA-N, > 100 µM (inactive); in the assay on MDA-MB-231, > 100 µM (inactive); in the assay with MDA-MB-435 it was > 100 µM (inactive); in the assay on SNB-75, > 100 µM (inactive); with SW-620, > 100 µM (inactive). For the same compound, the GI50 in the assay on SK-OV-3, in the assay on UACC-257, in the assay with NCI-H522, with COLO 205, in the assay on SK-MEL-5 and in the assay with ACHN was > 100 µM (inactive) in each case.
For the compound `CN(C)/C=N/[C@@H](C(=O)O)c1ccccc1`, the GI50 with PC-3 was > 100 µM (inactive); in the assay on A549, > 100 µM (inactive); in the assay on RPMI-8226 it was > 100 µM (inactive); in the assay with SF-268, > 100 µM (inactive); in the assay with HCT-15, over 100 µM; in the assay with T47D, > 100 µM (inactive). Also, the GI50 with MDA-N, with MDA-MB-231, with MDA-MB-435, in the assay on SNB-75, with SW-620 and with SK-OV-3 was > 100 µM (inactive) in each case. Further, the GI50 with UACC-257, with COLO 205, in the assay on SK-MEL-5 and with ACHN was > 100 µM (inactive) in each case.
`N#CCCC1(CCC#N)CCCCCCC(CCC#N)(CCC#N)C(O)C1O` (stereo not given): the GI50 is > 100 µM (inactive) in the assay on PC-3; > 100 µM (inactive) in the assay with A549; > 100 µM (inactive) with KM12; > 100 µM (inactive) in the assay with SF-268; over 100 µM in the assay with HCT-15; > 100 µM (inactive) in the assay on T47D. The GI50 with MDA-N, in the assay with MDA-MB-435, with SNB-75, in the assay with SW-620, in the assay on SK-MEL-2 and in the assay with SK-OV-3 was > 100 µM (inactive) in each case. For the same compound, the GI50 in the assay with UACC-257 was > 100 µM (inactive); in the assay on NCI-H522 it was > 100 µM (inactive); in the assay with COLO 205 it was 41.9 µM (inactive); in the assay with SK-MEL-5 it was > 100 µM (inactive); in the assay with ACHN, > 100 µM (inactive).
Consider `CC(=O)CC(=O)N1CCSC1=S`, for which the GI50 with PC-3, with A549, in the assay on KM12, with Hs-578T, in the assay with RPMI-8226 and in the assay with SF-268 was > 10 µM (inactive) throughout. In addition, the GI50 is over 10 µM in the assay with HCT-15; 6.67 µM (inactive) in the assay with T47D; > 10 µM (inactive) with MDA-N; > 10 µM (inactive) in the assay on MDA-MB-231; > 10 µM (inactive) in the assay with MDA-MB-435; > 10 µM (inactive) in the assay with SNB-75. Further, the GI50 in the assay with SW-620, in the assay on SK-MEL-2, in the assay on SK-OV-3, in the assay with UACC-257, with SK-MEL-5 and with ACHN was > 10 µM (inactive) in each case.
In the case of `O/N=C\c1c(O)ccc2ccccc12`, the GI50 is 88.3 µM (inactive) with PC-3; 46.6 µM (inactive) in the assay on A549; 42.3 µM (inactive) in the assay with KM12; > 100 µM (inactive) in the assay with Hs-578T; 49.8 µM (inactive) with RPMI-8226; 31.6 µM (inactive) in the assay with SF-268. The GI50 in the assay on HCT-15 was 32.2 µM; in the assay on T47D, 27.8 µM (inactive); in the assay on MDA-N, 66.5 µM (inactive); in the assay with MDA-MB-231, 46.3 µM (inactive); in the assay with MDA-MB-435, 65 µM (inactive); in the assay on SNB-75 it was 41.8 µM (inactive). Besides, the GI50 is 73.6 µM (inactive) with SW-620; 36.9 µM (inactive) in the assay on SK-OV-3; 71.9 µM (inactive) in the assay on UACC-257; 55.3 µM (inactive) with COLO 205; 46.7 µM (inactive) in the assay on SK-MEL-5; 24.8 µM (inactive) in the assay on ACHN.
As to `O=C1C(Cl)C(c2cccc(Cl)c2)N1c1ccc(-n2c(S)nc3ccccc3c2=O)cc1` (stereo not given), the GI50 in the assay with PC-3 was 27.7 µM (inactive); with A549, 28.2 µM (inactive); with KM12 it was 28.4 µM (inactive); in the assay on Hs-578T, 20.2 µM (inactive); in the assay with RPMI-8226 it was 17.9 µM (inactive); with SF-268 it was 12.6 µM (inactive). In addition, the GI50 was 1.02 µM in the assay on HCT-15; 31.8 µM (inactive) with T47D; 19.1 µM (inactive) in the assay with MDA-N; 20 µM (inactive) in the assay on MDA-MB-231; 15.7 µM (inactive) in the assay on MDA-MB-435; 29.6 µM (inactive) in the assay on SW-620. Moreover, the GI50 is 20.6 µM (inactive) with SK-OV-3; 26.9 µM (inactive) with UACC-257; 15.1 µM (inactive) in the assay on NCI-H522; 24.5 µM (inactive) in the assay with COLO 205; 15.1 µM (inactive) in the assay on SK-MEL-5; 18.7 µM (inactive) in the assay with ACHN.
For the compound `C[n+]1c2ccccc2c(C(=O)NC(CCCNC(=N)N)C(=O)O)c2ccccc21` (stereo not given), the GI50 with PC-3, in the assay on A549, with KM12, with Hs-578T, with RPMI-8226 and in the assay on SF-268 was > 100 µM (inactive) in each case. For the same compound, the GI50 with HCT-15 was over 100 µM; with T47D, > 100 µM (inactive); in the assay on MDA-N, > 100 µM (inactive); in the assay on MDA-MB-231 it was > 100 µM (inactive); in the assay with MDA-MB-435, > 100 µM (inactive); with SNB-75, > 100 µM (inactive). Besides, the GI50 in the assay with SW-620, in the assay on SK-MEL-2, with SK-OV-3, in the assay on UACC-257, in the assay with COLO 205 and in the assay with SK-MEL-5 was > 100 µM (inactive) each time. Further, the GI50 with ACHN is > 100 µM (inactive).
